Data set [1] deals with Caco-2 human intestinal epithelial cells. Briefly: Caco-2 permeability. Conditions: 5 μM, bi-directional, 60 min. The class given is in vitro ADME. The protocol:
Procedure: Caco-2 human intestinal epithelial cells were plated in 24-Transwell® dual chamber plates (Millipore, Billerica, Mass., USA) (cell density of 80,000 cells/cm^2 on day-1). The permeability studies were conducted with the monolayers cultured for 21 to 22 days in culture. The integrity of each Caco-2 cell monolayer was certified by trans epithelial electrical resistance (TEER) test (pre-experiment) and by determining the permeability of reference compound i.e., Lucifer yellow. Caco-2 cell monolayers with TEER values greater than 500 Ωcm^2 were considered for experimentation. Digoxin (5 μM) was used as a positive control for P-gp substrate. The concentrations of compound used in the assay was 5 μM. HBSS Buffer was used as the medium for the transport assay and the final concentration of DMSO in spiking solution was 0.05%. The bi-directional permeability study was initiated by adding an appropriate volume of HBSS buffer containing compound to respective apical and basolateral chambers (n=3). An aliquot of sample (100 μL) was taken from both chambers at 0 and 60 min of the incubation period and to this equal volume of acetonitrile was added, mixed gently and centrifuged at 4000 rpm for 10 min. An aliquot of 100 μL was subsequently transferred to the auto-sampler and 10 μL was injected for analysis on LC-MS/MS.
Background: Passage across Caco-2 layers is used to estimate intestinal permeability.

In data set [2] the target is T1, CYP3A4 (Homo sapiens, UniProt P08684).
T1 construct: assessed in human liver microsomes (procured from GIBCO Invitrogen); tissue GIBCO Invitrogen; host or cells: human liver microsomes
T1 sequence (P08684 whole entry): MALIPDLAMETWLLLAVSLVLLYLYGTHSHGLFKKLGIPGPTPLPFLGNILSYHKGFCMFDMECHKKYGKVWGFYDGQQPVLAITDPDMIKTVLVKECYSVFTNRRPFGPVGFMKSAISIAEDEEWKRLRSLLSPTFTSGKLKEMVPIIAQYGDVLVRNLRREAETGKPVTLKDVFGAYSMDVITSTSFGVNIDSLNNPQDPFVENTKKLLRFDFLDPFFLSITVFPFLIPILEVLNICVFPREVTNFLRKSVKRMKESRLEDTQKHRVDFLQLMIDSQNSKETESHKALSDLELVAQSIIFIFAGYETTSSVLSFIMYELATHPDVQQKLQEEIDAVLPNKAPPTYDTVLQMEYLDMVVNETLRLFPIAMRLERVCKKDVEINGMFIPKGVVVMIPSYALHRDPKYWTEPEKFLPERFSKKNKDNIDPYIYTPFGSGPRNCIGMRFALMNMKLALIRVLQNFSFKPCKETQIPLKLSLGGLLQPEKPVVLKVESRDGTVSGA
Put plainly: CYP inhibition in human liver microsomes (CYP3A4). The class given is in vitro ADME. As to conditions: hydroxylation of midazolam, read-out: predicted IC50, CYP 3A4. The procedure:
CYP inhibition potential of compound was assessed in human liver microsomes (procured from GIBCO Invitrogen) against CYP3A4, 2D6, 2C9, 2C19 and 1A2 in the following sequential steps. Standard reaction mixture (final volume 300 μL) contained […] potassium phosphate buffer (pH 7.4), protein (0.1, 0.25, 0.5, 0.5 and 0.5 mg/mL concentration for CYP3A4, 2D6, 2C9 2C19 and 1A2 respectively) and compound (at eight different concentration levels ranging from […], added as 0.9 μL DMSO solution with a final DMSO concentration of […]). The mixtures were pre-incubated at 37±1° C. for 5 min. The reaction (in duplicate) was initiated by addition of 30 μL of NADPH (10 mM). Reaction was terminated at 10 min by adding 300 μL of acetonitrile. The activity of liver microsomes was confirmed with positive controls i.e., monitoring the hydroxylation of midazolam for CYP 3A4, hydroxylation of bufuralol for CYP 2D6, hydroxylation of diclofenac for CYP 2C9, hydroxylation of omeprazole for CYP2C19 and O-Deethylation for CYP 1A2. The reaction mixtures (obtained from the above studies) were extracted, processed and analyzed by LC-MS [Shimadzu SIL LC series (Kyoto, Japan) was coupled to an API-4000 Mass Spectrometer (MDS Sciex, Toronto, Canada)].

Data set [3] has as its system RENCA renal cancer cell line. Briefly: In vivo efficacy in RENCA renal model. More on the design: species or system Balb/c mice. As to conditions: oral dosing. The protocol: In Vivo Efficacy of Compound-45 in RENCA Renal Model (FIG. 1):
RENCA renal cancer cell line was procured from ATCC, USA and grown in the recommended media and culture conditions. Cells in the exponential phase were mixed with equal volume of matrigel in a 1:1 ratio, followed by implantation of 1×10^6 cells/100 μl subcutaneously on the right flank of immunocompetant Balb/c mice (1 site/mouse). Tumor cells were engrafted at the site of injection within 1-2 weeks of implantation and treatment was initiated by randomizing mice into study groups of N=10, when the average tumor volume reached 100 mm^3. Tumor bearing mice were treated with Vehicle (oral), Vehicle (IP), Compound B (orally at 30 mg/kg dose, twice daily) or Anti-PD-L1 mAb (Clone 10F.9G2, BioXcell) intraperitoneally at 0.1 mg/mouse, Q4D. Tumor volume and mouse body weight was measured three times per week during treatment, until the tumor volume reached a maximum of 2000 mm^3. Tumor volume (mm^3) was calculated using the formula—(tumor length)×(tumor width)^2/2. For pharmacokinetic parameters of Compound B, plasma and tumors were isolated at the end of the study and analyzed. Tumor growth inhibition was calculated after normalizing the tumor volume on a given day to that on day 1 based on the formula below: % TGI=[1−(Treatment TVFinal−Treatment TVinitial)/(Vehicle TVFinal−Vehicle TVinitial)]*100

The target of data set [4] is T2, PD-1/PD-L1 interaction (Homo sapiens, UniProt Q9NZQ7).
T2 construct: Tag1 or Tag2 (undisclosed kit tag); purchased CisBio 63ADK000CPAPEG
T2 sequence (Q9NZQ7 19-238 limits assumed): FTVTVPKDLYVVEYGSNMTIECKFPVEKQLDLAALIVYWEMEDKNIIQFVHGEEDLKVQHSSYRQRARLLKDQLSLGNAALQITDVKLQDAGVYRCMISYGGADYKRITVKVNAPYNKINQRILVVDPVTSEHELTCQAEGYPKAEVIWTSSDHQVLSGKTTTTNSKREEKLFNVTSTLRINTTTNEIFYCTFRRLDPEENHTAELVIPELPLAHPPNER
Put plainly: PD-1/PD-L1 Homogenous Time-Resolved Fluorescence (HTRF) binding assay. As to conditions: Biochemical PD1/PD-L1 inhibition. Summed up: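 Compounds preincubated 15 min with tagged PD-L1 and PD-1 proteins, then anti-Tag1-Eu3+ donor and anti-Tag2-XL665 acceptor added for 1 h at RT.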
(In general: Time-resolved FRET reads energy transfer from a long-lived donor to a nearby acceptor.)

The values that follow come from patent US11629135B2 (JUBILANT PRODEL LLC, priority 2017, dated 2023).

As for `COc1nc(OCc2cccc(-c3ccccc3)c2C)nc(OC)c1CN1CCCC[C@H]1C(=O)O` [Compound 45, (S)-1-((4,6-dimethoxy-2-((2-methyl-[1,1′-biphenyl]-3-yl)methoxy)pyrimidin-5-yl)methyl)piperidine-2-carboxylic acid], in data set [1], the Caco-2 efflux entry is “high efflux” and the Caco-2 permeability entry is recorded as “medium permeable”. For the same compound, the IC50 (in general, the concentration that gives 50% inhibition) in data set [2] was above 10 µM. Moreover, in data set [3] (RENCA tumor bearing Balb/c mice), the “body weight during the dosing regimen” value is on record as “no significant body weight reduction”. Besides, the “efficacy in RENCA renal model (tumor growth)” value in data set [3] (syngeneic Balb/c mice, 30 mg/kg twice daily, comparator Anti-PD-L1 mAb 0.1 mg/mouse IP Q4D) is recorded as “better or similar efficacy compared to PD-L1 monoclonal antibody”. In data set [4], this compound showed an IC50 below 0.1 µM.
